The target of assay [1] is T1, Dual specificity mitogen-activated protein kinase kinase 6 (Homo sapiens, UniProt P52564).
T1 sequence (P52564 whole entry): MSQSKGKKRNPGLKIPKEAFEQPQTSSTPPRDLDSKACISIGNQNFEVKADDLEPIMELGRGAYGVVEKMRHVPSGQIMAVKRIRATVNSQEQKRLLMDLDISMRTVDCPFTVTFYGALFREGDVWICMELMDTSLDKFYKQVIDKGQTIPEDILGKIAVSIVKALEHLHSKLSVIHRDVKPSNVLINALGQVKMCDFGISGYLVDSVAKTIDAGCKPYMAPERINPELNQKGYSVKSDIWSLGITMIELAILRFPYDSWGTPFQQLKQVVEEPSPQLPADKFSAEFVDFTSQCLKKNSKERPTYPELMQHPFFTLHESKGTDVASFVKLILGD

For assay [2], the target named is Proto-oncogene tyrosine-protein kinase receptor Ret (Homo sapiens, UniProt P07949).
Proto-oncogene tyrosine-protein kinase receptor Ret, sequence (P07949 whole entry): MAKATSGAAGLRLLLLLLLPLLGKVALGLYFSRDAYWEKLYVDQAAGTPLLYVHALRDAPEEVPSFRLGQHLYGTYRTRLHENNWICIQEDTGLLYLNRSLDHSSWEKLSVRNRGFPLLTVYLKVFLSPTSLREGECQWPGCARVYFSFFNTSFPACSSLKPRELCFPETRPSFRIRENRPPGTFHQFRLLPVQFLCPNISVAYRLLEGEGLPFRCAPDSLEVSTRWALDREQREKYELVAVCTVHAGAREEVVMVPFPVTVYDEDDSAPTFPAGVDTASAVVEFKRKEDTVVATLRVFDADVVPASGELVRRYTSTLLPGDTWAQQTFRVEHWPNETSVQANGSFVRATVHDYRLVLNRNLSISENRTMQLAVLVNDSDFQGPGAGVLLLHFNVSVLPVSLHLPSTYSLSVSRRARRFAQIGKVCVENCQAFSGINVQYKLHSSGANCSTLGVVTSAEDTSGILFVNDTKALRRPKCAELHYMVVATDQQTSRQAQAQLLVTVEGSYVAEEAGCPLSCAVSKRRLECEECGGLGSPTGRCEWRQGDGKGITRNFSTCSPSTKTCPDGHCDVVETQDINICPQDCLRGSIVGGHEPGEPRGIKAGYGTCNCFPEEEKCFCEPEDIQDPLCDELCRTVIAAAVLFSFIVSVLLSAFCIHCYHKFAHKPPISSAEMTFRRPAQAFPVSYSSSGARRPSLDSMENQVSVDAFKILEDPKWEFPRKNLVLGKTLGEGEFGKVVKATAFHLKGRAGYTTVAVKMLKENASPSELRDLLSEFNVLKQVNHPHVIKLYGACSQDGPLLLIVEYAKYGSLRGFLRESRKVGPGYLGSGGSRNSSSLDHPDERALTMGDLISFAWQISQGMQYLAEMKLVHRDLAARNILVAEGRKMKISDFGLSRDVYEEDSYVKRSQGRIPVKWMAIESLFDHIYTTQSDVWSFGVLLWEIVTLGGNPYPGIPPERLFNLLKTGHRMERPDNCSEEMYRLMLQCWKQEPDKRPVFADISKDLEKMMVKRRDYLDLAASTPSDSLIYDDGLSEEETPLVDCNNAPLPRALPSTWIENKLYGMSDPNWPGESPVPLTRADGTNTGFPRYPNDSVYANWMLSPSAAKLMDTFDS
For assay [3], the target named is T2, Serine/threonine-protein kinase TAO2 (Homo sapiens, UniProt Q9UL54).
T2 sequence (Q9UL54 whole entry): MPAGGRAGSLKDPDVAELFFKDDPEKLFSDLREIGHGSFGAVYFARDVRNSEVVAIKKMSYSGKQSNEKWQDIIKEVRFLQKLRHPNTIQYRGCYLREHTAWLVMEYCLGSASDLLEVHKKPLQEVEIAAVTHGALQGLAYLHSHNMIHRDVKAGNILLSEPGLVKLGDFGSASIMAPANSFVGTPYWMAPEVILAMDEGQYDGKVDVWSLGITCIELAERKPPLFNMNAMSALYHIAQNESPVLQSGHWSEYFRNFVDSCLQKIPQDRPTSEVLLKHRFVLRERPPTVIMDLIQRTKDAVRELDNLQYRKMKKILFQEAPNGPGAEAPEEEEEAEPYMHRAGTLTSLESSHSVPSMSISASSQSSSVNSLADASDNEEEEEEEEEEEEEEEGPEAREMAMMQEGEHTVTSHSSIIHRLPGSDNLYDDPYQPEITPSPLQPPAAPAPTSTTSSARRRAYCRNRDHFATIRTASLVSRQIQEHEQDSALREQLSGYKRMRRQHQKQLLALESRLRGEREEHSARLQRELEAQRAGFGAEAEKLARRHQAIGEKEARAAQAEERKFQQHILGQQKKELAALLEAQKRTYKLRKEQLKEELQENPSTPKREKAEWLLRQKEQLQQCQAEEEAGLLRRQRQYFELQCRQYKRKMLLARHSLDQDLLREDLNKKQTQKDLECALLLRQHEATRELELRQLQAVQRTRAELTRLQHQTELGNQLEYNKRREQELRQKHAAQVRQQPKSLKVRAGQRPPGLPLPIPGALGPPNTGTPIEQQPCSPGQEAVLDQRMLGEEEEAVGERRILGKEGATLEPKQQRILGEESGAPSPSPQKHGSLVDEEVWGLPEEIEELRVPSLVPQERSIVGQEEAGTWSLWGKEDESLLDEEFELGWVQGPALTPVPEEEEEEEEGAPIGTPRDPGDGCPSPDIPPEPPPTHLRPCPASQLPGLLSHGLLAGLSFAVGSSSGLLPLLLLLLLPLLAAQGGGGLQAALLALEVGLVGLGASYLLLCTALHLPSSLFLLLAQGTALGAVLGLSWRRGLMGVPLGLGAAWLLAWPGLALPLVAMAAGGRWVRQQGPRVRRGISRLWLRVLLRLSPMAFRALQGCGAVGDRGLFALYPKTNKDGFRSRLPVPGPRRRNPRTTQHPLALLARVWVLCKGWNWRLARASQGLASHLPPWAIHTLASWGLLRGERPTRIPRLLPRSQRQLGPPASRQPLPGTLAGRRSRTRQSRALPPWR

Assay [4] has as its target T3, Serine/threonine-protein kinase TAO3 (Homo sapiens, UniProt Q9H2K8).
T3 sequence (Q9H2K8 whole entry): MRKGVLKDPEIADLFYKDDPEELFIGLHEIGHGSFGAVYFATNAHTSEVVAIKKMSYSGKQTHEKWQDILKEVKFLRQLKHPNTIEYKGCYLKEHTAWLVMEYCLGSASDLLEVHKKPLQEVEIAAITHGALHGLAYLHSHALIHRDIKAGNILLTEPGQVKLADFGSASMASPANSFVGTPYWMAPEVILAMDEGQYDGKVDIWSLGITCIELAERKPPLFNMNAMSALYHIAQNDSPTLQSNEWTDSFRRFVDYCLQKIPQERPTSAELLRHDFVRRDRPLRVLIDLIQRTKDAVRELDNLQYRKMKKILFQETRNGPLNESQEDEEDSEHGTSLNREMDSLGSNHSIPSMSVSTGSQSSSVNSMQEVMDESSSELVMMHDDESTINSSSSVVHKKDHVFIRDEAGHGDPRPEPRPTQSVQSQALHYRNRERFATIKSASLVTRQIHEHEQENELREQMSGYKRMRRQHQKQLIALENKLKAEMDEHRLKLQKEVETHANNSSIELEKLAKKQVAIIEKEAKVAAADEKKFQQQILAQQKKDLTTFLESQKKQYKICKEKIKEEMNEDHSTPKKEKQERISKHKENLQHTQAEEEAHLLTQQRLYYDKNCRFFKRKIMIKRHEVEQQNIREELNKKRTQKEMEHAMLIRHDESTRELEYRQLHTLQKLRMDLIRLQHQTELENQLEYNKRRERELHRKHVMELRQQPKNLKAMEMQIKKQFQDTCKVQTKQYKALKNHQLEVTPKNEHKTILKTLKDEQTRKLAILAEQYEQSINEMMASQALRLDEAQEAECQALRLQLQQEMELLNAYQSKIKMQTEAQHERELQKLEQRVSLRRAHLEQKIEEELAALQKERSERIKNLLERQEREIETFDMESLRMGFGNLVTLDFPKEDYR

A further assay addresses Wee1-like protein kinase (Homo sapiens, UniProt P30291).

The record followed here is ChEMBL document CHEMBL3991601, “The target landscape of clinical kinase drugs” (Science, 2017).

Molecules are shown by their SMILES. Calls of active or inactive are those of the source. For most assays here, no stated cut-off is given here; in the data, actives have a measured Kd and inactives only a lower limit.

Wee1-like protein kinase, sequence (P30291 whole entry): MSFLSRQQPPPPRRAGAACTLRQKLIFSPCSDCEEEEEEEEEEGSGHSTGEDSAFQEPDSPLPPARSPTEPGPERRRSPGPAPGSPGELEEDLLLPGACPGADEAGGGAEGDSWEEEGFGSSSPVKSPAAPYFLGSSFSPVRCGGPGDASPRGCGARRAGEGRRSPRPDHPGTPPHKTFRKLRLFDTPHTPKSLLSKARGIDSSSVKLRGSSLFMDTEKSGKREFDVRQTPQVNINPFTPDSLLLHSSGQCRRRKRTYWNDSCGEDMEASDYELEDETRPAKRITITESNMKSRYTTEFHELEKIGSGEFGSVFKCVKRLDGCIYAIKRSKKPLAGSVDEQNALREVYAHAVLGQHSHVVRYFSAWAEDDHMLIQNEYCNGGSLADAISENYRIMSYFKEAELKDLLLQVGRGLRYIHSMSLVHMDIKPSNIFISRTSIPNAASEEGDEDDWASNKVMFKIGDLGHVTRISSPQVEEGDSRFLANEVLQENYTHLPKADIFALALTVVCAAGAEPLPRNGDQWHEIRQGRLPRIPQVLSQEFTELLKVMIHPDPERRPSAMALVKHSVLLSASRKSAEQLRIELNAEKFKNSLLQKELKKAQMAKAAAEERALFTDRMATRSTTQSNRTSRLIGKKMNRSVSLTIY

`C[C@@H](Oc1cc(C(=O)Nc2ccc(C(=O)N3CCN(C)CC3)cc2)nnc1N)c1c(Cl)ccc(F)c1Cl`: the Kd (in assay [1]; in assay [2]; in assay [3]; in assay [4]; on Wee1-like protein kinase) was > 30 µM (inactive) throughout.
Take `C[C@H]1CNCCCN1S(=O)(=O)c1cccc2cncc(F)c12`: the Kd in assay [1] is > 30 µM (inactive); in assay [2] it was > 30 µM (inactive); in assay [3], > 30 µM (inactive); in assay [4] it was 11.8 µM (active); on Wee1-like protein kinase, > 30 µM (inactive).
In the case of `CC(=O)c1cnc2ccc(-c3cc(Cl)c(O)c(Cl)c3)nc2c1N[C@H]1CC[C@H](CN(C)C)CC1`, the Kd is 4.56 µM (active) in assay [1]; 0.028 µM (active) in assay [2]; 0.01 µM in assay [3]; 0.021 µM (active) in assay [4]; > 30 µM (inactive) on Wee1-like protein kinase.
In the same order, the values of `CCNC(=O)C#Cc1ccc2c(c1)NC(=O)/C2=C(\Nc1ccc(CN(C)C)cc1)c1ccccc1` are > 30 µM (inactive), 0.227 µM (active), > 30 µM (inactive), > 30 µM (inactive) and > 30 µM (inactive).
In the same order, the values of `C=CC(=O)N1CCC[C@H](n2c(=O)n(-c3ccc(Oc4ccccc4)cc3)c3c(N)ncnc32)C1` are > 30 µM (inactive), > 30 µM (inactive), > 30 µM (inactive), > 30 µM (inactive) and > 30 µM (inactive).
With `Cc1nc2cc(-c3nn(C(C)C)c4ncnc(N)c34)ccc2o1`, the Kd in assay [1] is > 30 µM (inactive); in assay [2], 1.6 µM (active); in assay [3], 1.73 µM (active); in assay [4] it was > 30 µM (inactive); at Wee1-like protein kinase, > 30 µM (inactive).
For the compound `COCc1c(-c2ccc(NC(=O)Nc3cc(C(F)(F)F)ccc3F)c(F)c2)c2c(N)ncnn2c1CN1CCOCC1`, the Kd in assay [1] was > 30 µM (inactive); in assay [2], 0.093 µM (active); in assay [3] it was > 30 µM (inactive); in assay [4], > 30 µM (inactive); at Wee1-like protein kinase it was > 30 µM (inactive).
Regarding `Nc1ncnc2c1c(-c1cccc(OCc3ccccc3)c1)cn2[C@H]1C[C@@H](CN2CCC2)C1` [AEW-541], the Kd in assay [1] was > 30 µM (inactive); in assay [2], 23.2 µM (active); in assay [3], > 30 µM (inactive); in assay [4], > 30 µM (inactive); on Wee1-like protein kinase it was > 30 µM (inactive).
`COc1cc(Nc2ncc3c(n2)-c2ccc(Cl)cc2C(c2c(F)cccc2OC)=NC3)ccc1C(=O)O` [ALISERTIB]: the Kd (in assay [1]; in assay [3]; in assay [4]; at Wee1-like protein kinase) was > 30 µM (inactive) each time.
As for `O=C(Nc1c[nH]nc1-c1nc2cc(CN3CCOCC3)ccc2[nH]1)NC1CC1` [AT-9283], the dissociation constant (Kd) in assay [1] is 3.54 µM (active); in assay [3] it was > 30 µM (inactive); in assay [4], > 30 µM (inactive); on Wee1-like protein kinase it was > 30 µM (inactive).
Take `COc1cc2ncnc(Oc3cccc(NC(=O)Nc4cc(C(C)(C)C(F)(F)F)on4)c3)c2cc1OC` [CEP-32496]: the Kd (in assay [1]; in assay [3]; in assay [4]; at Wee1-like protein kinase) was > 30 µM (inactive) in each case.
Regarding `Cc1cc(Nc2ncc(Cl)c(Nc3ccccc3S(=O)(=O)C(C)C)n2)c(OC(C)C)cc1C1CCNCC1` [CERITINIB], the Kd (in assay [1]; in assay [3]; in assay [4]; on Wee1-like protein kinase) was > 30 µM (inactive) in each case.
In the case of `C#Cc1cccc(Nc2ncnc3cc(OC)c(OCCCCCCC(=O)NO)cc23)c1` [CUDC-101], the Kd (in assay [1]; in assay [3]; in assay [4]; at Wee1-like protein kinase) was > 30 µM (inactive) throughout.
As to `CC(C)(C)c1nc(-c2cccc(NS(=O)(=O)c3c(F)cccc3F)c2F)c(-c2ccnc(N)n2)s1` [DABRAFENIB], the Kd (in assay [1]; in assay [3]; in assay [4]; on Wee1-like protein kinase) was > 30 µM (inactive) in each case.
Take `CCn1cc(-c2ccnc3[nH]c(-c4cccc(CN(C)C)c4)cc23)c(-c2ccc(NC(=O)N(C)C)cc2)n1` [GSK-1070916]: the Kd in assay [1] is > 30 µM (inactive); in assay [2], 0.067 µM (active); in assay [4] it was > 30 µM (inactive); at Wee1-like protein kinase it was > 30 µM (inactive).
In the case of `CN(C[C@@H]1COCCO1)S(=O)(=O)Nc1ccc2ccc3ncc(-c4cnn(C)c4)cc3c(=O)c2c1` [MK-2461], the Kd (in assay [1]; in assay [3]; in assay [4]; on Wee1-like protein kinase) was > 30 µM (inactive) in each case.
In the case of `Cc1[nH]c(/C=C2\C(=O)Nc3ccccc32)c(C)c1CCC(=O)O` [ORANTINIB], the Kd (in assay [1]; in assay [3]; in assay [4]; on Wee1-like protein kinase) was > 30 µM (inactive) throughout.
For the compound `NC(=O)c1c(OCc2c(F)cc(Br)cc2F)nsc1NC(=O)NCCCCN1CCCC1` [OSI-632], the Kd (in assay [1]; in assay [3]; on Wee1-like protein kinase) was > 30 µM (inactive) each time.
`CCOc1cc2ncc(C#N)c(Nc3ccc(F)c(Cl)c3)c2cc1NC(=O)/C=C/CN(C)C` [PELITINIB]: the Kd in assay [1], in assay [2], in assay [3] and in assay [4] was > 30 µM (inactive) each time.
For the compound `CC(=O)NCC(=O)N1[C@@H]2CC[C@H]1c1ccc(Nc3ncc(C(F)(F)F)c(NC4CCC4)n3)cc12` [PF-03814735], the Kd in assay [1] was > 30 µM (inactive); in assay [3], 2.05 µM (active); in assay [4], 2.4 µM (active); on Wee1-like protein kinase it was 1.59 µM (active).
The matching figures for `CNC(=O)c1cc(Oc2ccc(NC(=O)Nc3cc(C(C)(C)C)nn3-c3ccc4ncccc4c3)c(F)c2)ccn1` [REBASTINIB]: > 30 µM (inactive), > 30 µM (inactive), 14.2 µM (active) and > 30 µM (inactive).

As usually defined, the Kd is the free concentration of one partner at which half of the binding sites on the other are occupied at equilibrium, for simple one-to-one binding.
